Values belong to the compound of their own block, whether it stands above or below them.
Assays:
[1] = molecular target: T1, hACKR3 (atypical chemokine receptor 3; CXCR7) (Homo sapiens, UniProt P25106); assay: [3H]VUF15485 displacement, HEK293T membranes; type: binding; conditions: for pIC50: 5 nM [3H]VUF15485, 25 °C, 2 h
[2] = molecular target: T1, hACKR3 (atypical chemokine receptor 3; CXCR7); assay: […]CXCL12 displacement, intact HEK293T cells; type: cell-based
[3] = molecular target: T1, hACKR3 (atypical chemokine receptor 3; CXCR7); assay: [3H]VUF15485 saturation binding, HEK293T membranes
mouse ACKR3 (mACKR3) = mouse ACKR3 (mACKR3) (Mus musculus, UniProt P56485); assay: NanoBiT beta-arrestin2 recruitment, HEK293T; type: cell-based
[4] = molecular target: hACKR3 (atypical chemokine receptor 3; CXCR7) (Homo sapiens, UniProt P25106, H298A); assay: homologous [3H]VUF15485 competition binding, HEK293T membranes
[5] = molecular target: hACKR3 (atypical chemokine receptor 3; CXCR7) (Homo sapiens, UniProt P25106, H121A); assay: as above
[6] = molecular target: T1, hACKR3 (atypical chemokine receptor 3; CXCR7); assay: BRET beta-arrestin2 recruitment, HEK293T; type: cell-based
[7] = molecular target: hACKR3 (atypical chemokine receptor 3; CXCR7) (Homo sapiens, UniProt P25106, E213Q); assay: homologous [3H]VUF15485 competition binding, HEK293T membranes
[8] = molecular target: hACKR3 (atypical chemokine receptor 3; CXCR7) (Homo sapiens, UniProt P25106, Q301E); assay: as above
[9] = molecular target: hACKR3 (atypical chemokine receptor 3; CXCR7) (Homo sapiens, UniProt P25106, V217A); assay: as above
[10] = molecular target: hACKR3 (atypical chemokine receptor 3; CXCR7) (Homo sapiens, UniProt P25106, S103D); assay: as above
[11] = molecular target: hACKR3 (atypical chemokine receptor 3; CXCR7) (Homo sapiens, UniProt P25106, D275N); assay: as above
[12] = molecular target: hACKR3 (atypical chemokine receptor 3; CXCR7) (Homo sapiens, UniProt P25106, Y51A); assay: as above
[13] = molecular target: T1, hACKR3 (atypical chemokine receptor 3; CXCR7); assay: as above

T1 sequence (P25106 whole entry): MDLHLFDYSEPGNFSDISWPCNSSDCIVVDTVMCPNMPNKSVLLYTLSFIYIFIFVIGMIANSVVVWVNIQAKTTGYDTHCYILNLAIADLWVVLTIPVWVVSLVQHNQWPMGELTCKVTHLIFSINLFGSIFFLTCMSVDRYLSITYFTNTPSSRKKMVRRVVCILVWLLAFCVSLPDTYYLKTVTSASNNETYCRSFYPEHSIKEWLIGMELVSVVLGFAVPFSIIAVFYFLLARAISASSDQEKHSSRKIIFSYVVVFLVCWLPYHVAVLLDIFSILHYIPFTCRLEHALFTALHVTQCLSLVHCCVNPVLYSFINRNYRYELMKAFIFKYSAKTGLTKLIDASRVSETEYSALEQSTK
Sequence of hACKR3 (atypical chemokine receptor 3; CXCR7) (Homo sapiens, UniProt P25106, H121A) (P25106 whole entry H121A): as the sequence (P25106 whole entry) above, with H121A counted along it
Sequence of hACKR3 (atypical chemokine receptor 3; CXCR7) (Homo sapiens, UniProt P25106, V217A) (P25106 whole entry V217A): as the sequence (P25106 whole entry) above, with V217A counted along it
Sequence of hACKR3 (atypical chemokine receptor 3; CXCR7) (Homo sapiens, UniProt P25106, H298A) (P25106 whole entry H298A): as the sequence (P25106 whole entry) above, with H298A counted along it
Sequence of hACKR3 (atypical chemokine receptor 3; CXCR7) (Homo sapiens, UniProt P25106, Q301E) (P25106 whole entry Q301E): as the sequence (P25106 whole entry) above, with Q301E counted along it
Sequence of hACKR3 (atypical chemokine receptor 3; CXCR7) (Homo sapiens, UniProt P25106, D275N) (P25106 whole entry D275N): as the sequence (P25106 whole entry) above, with D275N counted along it
Sequence of mouse ACKR3 (mACKR3) (P56485 whole entry): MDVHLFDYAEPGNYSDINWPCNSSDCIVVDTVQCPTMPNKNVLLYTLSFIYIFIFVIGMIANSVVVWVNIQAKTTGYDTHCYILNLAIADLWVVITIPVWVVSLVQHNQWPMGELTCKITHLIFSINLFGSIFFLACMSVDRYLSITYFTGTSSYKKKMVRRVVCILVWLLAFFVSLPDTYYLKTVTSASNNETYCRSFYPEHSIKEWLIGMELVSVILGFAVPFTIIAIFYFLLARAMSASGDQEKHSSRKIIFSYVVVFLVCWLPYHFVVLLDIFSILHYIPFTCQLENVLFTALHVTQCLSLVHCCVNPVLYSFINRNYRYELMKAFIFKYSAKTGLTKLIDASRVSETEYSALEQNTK
Sequence of hACKR3 (atypical chemokine receptor 3; CXCR7) (Homo sapiens, UniProt P25106, Y51A) (P25106 whole entry Y51A): as the sequence (P25106 whole entry) above, with Y51A counted along it
Sequence of hACKR3 (atypical chemokine receptor 3; CXCR7) (Homo sapiens, UniProt P25106, E213Q) (P25106 whole entry E213Q): as the sequence (P25106 whole entry) above, with E213Q counted along it
Sequence of hACKR3 (atypical chemokine receptor 3; CXCR7) (Homo sapiens, UniProt P25106, S103D) (P25106 whole entry S103D): as the sequence (P25106 whole entry) above, with S103D counted along it

Compound: VUF11403 [30 in Wijtmans et al., 2012a]
pIC50 [1]: 7.9 ± 0.1

Compound: VUF10990 [10q in Wijtmans et al., 2011]
pIC50 [1]: 5.9 ± 0.1

Compound: VUF16779 [22 in Adlere et al., 2019]
pIC50 [1]: 6.0 ± 0.1

Compound: VUF16545 [1 in Uto-Konimi et al., 2013]
pIC50 [1]: 7.8 ± 0.1

Compound: CC1(C)[C@H]2CC=C(C[N+](C)(C)Cc3ccc(-c4ccccc4I)cc3)[C@@H]1C2.[I-] [39 in Wijtmans et al., 2012b, VUF11418]
pIC50 [1]: 5.9 ± 0.3

Compound: CC1(C)CN2C(CS/C(=N\C3CCCCC3)NC3CCCCC3)=CSC2=N1 [IT1t]
IC50 [1]: ≥ 100000 nM

Compound: CC1(C)[C@H]2CC=C(C[N+](C)(C)Cc3ccc(-c4ccccc4Br)cc3)[C@@H]1C2.[I-] [38 in Wijtmans et al., 2012b, VUF11222]
pIC50 [1]: 5.8 ± 0.2

Compound: Oc1ccc(CN2CCC(CNCc3ccccc3)CC2)cc1 [9 in Adlere et al., 2019, VUF16774]
IC50 [1]: 10000 nM

Compound: VUF16771 [28 in Adlere et al., 2019]
pIC50 [1]: 5.8 ± 0.1

The remaining lines, values ahead:

IC50 [2]: 5.01 nM
Kd [3]: 16 ± 2.4 nM
EC50 (mouse ACKR3 (mACKR3)): 20 nM
Ki [4]: 44.7 nM
Ki [5]: 55 nM
EC50 [6]: 25.1 nM
Ki [7]: 10.5 nM
Ki [8]: 17 nM
Ki [9]: 38 nM
Ki [10]: 95.5 nM
Ki [11]: 18.6 nM
Ki [12]: 49 nM
Ki [13]: 24.5 nM
Compound: COc1cc(C(=O)N(CC[C@H]2CCCN2C)C/C(C)=C/c2ccccc2F)cc(OC)c1OC [VUF15485, (R,E)-N-(3-(2-fluorophenyl)-2-methylallyl)-3,4,5-trimethoxy-N-(2-(1-methylpyrrolidin-2-yl)ethyl)benzamide]

IC50 [2]: 10 nM
EC50 [6]: 31.6 nM
Compound: COc1cc(C(=O)N(CCC2CCCN2C)C/C(C)=C/c2ccccc2F)cc(OC)c1OC (stereo not shown) [VUF11207]

IC50 [2]: 20 nM
EC50 [6]: 39.8 nM
Compound: COc1cc(C(=O)N(CC[C@@H]2CCCN2C)C/C(C)=C/c2ccccc2F)cc(OC)c1OC [VUF13744]

pIC50 [1]: 4.7 ± 0.2
Compound: CCNC(=O)c1cnc(N2CCN(C3CCN(Cc4ccc(Cl)cc4)CC3)C(CC)C2)c(Cl)c1 (stereo not shown) [VUF11211]

IC50 [1]: ≥ 100000 nM
Compound: c1cc(CN2CCCNCCNCCCNCC2)ccc1CN1CCCNCCNCCCNCC1 [AMD3100]
